Assay results taken from article PMC5988656, “Phase I studies of AZD1208, a proviral integration Moloney virus kinase inhibitor in solid and haematological cancers” (British Journal of Cancer, 2018).

Test system: patients with advanced solid tumours
Test: Solid tumour dose-escalation study: safety and tolerability (AEs, DLTs)
Source text: Conducted at two UK centres and one in Japan. Dose escalation followed a rolling six design.[14] Patients received a single dose on Day 1 during Cycle 0, followed by a 3-day washout period, after which multiple dosing was initiated. Cycle 1 was a 21-day period from the first dose of multiple dosing.
The CTCAE (version 4.0) was utilised to grade all AE events.
AEs were summarised by Medical Dictionary for Regulatory Activities (MedDRA) system organ class, MedDRA preferred term and CTCAE grade. Summary statistics of mean, median, standard deviation, minimum, maximum and number of observations were used.

## N[C@@H]1CCCN(c2c(/C=C3\SC(=O)NC3=O)cccc2-c2ccccc2)C1 [AZD1208]
120 mg, n = 3
  Abdominal pain (all-grade AE): 0 (0.0) n (%)
  Anaemia (all-grade AE): 3 (100.0) n (%)
  Constipation (all-grade AE): 0 (0.0) n (%)
  Decreased appetite (all-grade AE): 1 (33.3) n (%)
  Diarrhoea (all-grade AE): 2 (66.7) n (%)
  Dry skin (all-grade AE): 0 (0.0) n (%)
  Dyspnoea (all-grade AE): 0 (0.0) n (%)
  Fatigue (all-grade AE): 0 (0.0) n (%)
  GGT increased (all-grade AE): 0 (0.0) n (%)
  Hyperglycaemia (all-grade AE): 1 (33.3) n (%)
  Hypoalbuminaemia (all-grade AE): 1 (33.3) n (%)
  Hypokalaemia (all-grade AE): 0 (0.0) n (%)
  Hyponatraemia (all-grade AE): 0 (0.0) n (%)
  Insomnia (all-grade AE): 0 (0.0) n (%)
  Musculoskeletal chest pain (all-grade AE): 0 (0.0) n (%)
  Nausea (all-grade AE): 1 (33.3) n (%)
  Patients with any AE (all-grade AE): 3 (100.0) n (%)
  Platelet count decreased (all-grade AE): 2 (66.7) n (%)
  Pyrexia (all-grade AE): 0 (0.0) n (%)
  Thrombocytopenia (all-grade AE): 0 (0.0) n (%)
  Vomiting (all-grade AE): 0 (0.0) n (%)
  White blood cell count decreased (all-grade AE): 2 (66.7) n (%)
240 mg
  Patients requiring dose interruptions because of AEs: 2 n
240 mg (anaemia, alanine transaminase increased, GGT increased)
  Patients with CTCAE grade ≥3 AEs causally related to AZD1208: 3 n
240 mg, n = 7
  Abdominal pain (all-grade AE): 3 (42.9) n (%)
  Anaemia (all-grade AE): 4 (57.1) n (%)
  Constipation (all-grade AE): 0 (0.0) n (%)
  DLT detail, action taken: GGT increased, drug interrupted
  Decreased appetite (all-grade AE): 3 (42.9) n (%)
  Diarrhoea (all-grade AE): 5 (71.4) n (%)
  Dry skin (all-grade AE): 3 (42.9) n (%)
  Dyspnoea (all-grade AE): 1 (14.3) n (%)
  Fatigue (all-grade AE): 2 (28.6) n (%)
  GGT increased (all-grade AE): 2 (28.6) n (%)
  Hyperglycaemia (all-grade AE): 0 (0.0) n (%)
  Hypoalbuminaemia (all-grade AE): 2 (28.6) n (%)
  Hypokalaemia (all-grade AE): 0 (0.0) n (%)
  Hyponatraemia (all-grade AE): 0 (0.0) n (%)
  Insomnia (all-grade AE): 1 (14.3) n (%)
  Musculoskeletal chest pain (all-grade AE): 0 (0.0) n (%)
  Nausea (all-grade AE): 6 (85.7) n (%)
  Patients with any AE (all-grade AE): 7 (100.0) n (%)
  Platelet count decreased (all-grade AE): 2 (28.6) n (%)
  Pyrexia (all-grade AE): 1 (14.3) n (%)
  Thrombocytopenia (all-grade AE): 0 (0.0) n (%)
  Vomiting (all-grade AE): 6 (85.7) n (%)
  White blood cell count decreased (all-grade AE): 3 (42.9) n (%)
360 mg
  Patients requiring dose interruptions because of AEs: 3 n
360 mg (lymphocyte decreased)
  Patients with CTCAE grade ≥3 AEs causally related to AZD1208: 1 n
360 mg, n = 6
  Abdominal pain (all-grade AE): 2 (33.3) n (%)
  Anaemia (all-grade AE): 2 (33.3) n (%)
  Constipation (all-grade AE): 3 (50.0) n (%)
  Decreased appetite (all-grade AE): 2 (33.3) n (%)
  Diarrhoea (all-grade AE): 5 (83.3) n (%)
  Dry skin (all-grade AE): 1 (16.7) n (%)
  Dyspnoea (all-grade AE): 2 (33.3) n (%)
  Fatigue (all-grade AE): 3 (50.0) n (%)
  GGT increased (all-grade AE): 1 (16.7) n (%)
  Hyperglycaemia (all-grade AE): 1 (16.7) n (%)
  Hypoalbuminaemia (all-grade AE): 2 (33.3) n (%)
  Hypokalaemia (all-grade AE): 0 (0.0) n (%)
  Hyponatraemia (all-grade AE): 1 (16.7) n (%)
  Insomnia (all-grade AE): 1 (16.7) n (%)
  Musculoskeletal chest pain (all-grade AE): 2 (33.3) n (%)
  Nausea (all-grade AE): 3 (50.0) n (%)
  Patients with any AE (all-grade AE): 6 (100.0) n (%)
  Platelet count decreased (all-grade AE): 1 (16.7) n (%)
  Pyrexia (all-grade AE): 3 (50.0) n (%)
  Thrombocytopenia (all-grade AE): 2 (33.3) n (%)
  Vomiting (all-grade AE): 1 (16.7) n (%)
  White blood cell count decreased (all-grade AE): 1 (16.7) n (%)
540 mg
  Patients requiring dose interruptions because of AEs: 6 n
540 mg (vomiting, fatigue, lethargy)
  Patients with CTCAE grade ≥3 AEs causally related to AZD1208: 2 n
540 mg, n = 7
  Abdominal pain (all-grade AE): 2 (28.6) n (%)
  Anaemia (all-grade AE): 4 (57.1) n (%)
  Constipation (all-grade AE): 0 (0.0) n (%)
  DLT detail, action taken: Vomiting, drug permanently discontinued
  Decreased appetite (all-grade AE): 4 (57.1) n (%)
  Diarrhoea (all-grade AE): 6 (85.7) n (%)
  Dry skin (all-grade AE): 2 (28.6) n (%)
  Dyspnoea (all-grade AE): 1 (14.3) n (%)
  Fatigue (all-grade AE): 3 (42.9) n (%)
  GGT increased (all-grade AE): 2 (28.6) n (%)
  Hyperglycaemia (all-grade AE): 4 (57.1) n (%)
  Hypoalbuminaemia (all-grade AE): 1 (14.3) n (%)
  Hypokalaemia (all-grade AE): 2 (28.6) n (%)
  Hyponatraemia (all-grade AE): 3 (42.9) n (%)
  Insomnia (all-grade AE): 1 (14.3) n (%)
  Musculoskeletal chest pain (all-grade AE): 1 (14.3) n (%)
  Nausea (all-grade AE): 7 (100.0) n (%)
  Patients with any AE (all-grade AE): 7 (100.0) n (%)
  Platelet count decreased (all-grade AE): 2 (28.6) n (%)
  Pyrexia (all-grade AE): 0 (0.0) n (%)
  Thrombocytopenia (all-grade AE): 1 (14.3) n (%)
  Vomiting (all-grade AE): 5 (71.4) n (%)
  White blood cell count decreased (all-grade AE): 2 (28.6) n (%)
700 mg
  Patients requiring dose interruptions because of AEs: 3 n
700 mg (nausea, fatigue)
  Patients with CTCAE grade ≥3 AEs causally related to AZD1208: 1 n
700 mg, n = 6
  Anaemia (all-grade AE): 3 (50.0) n (%)
  Constipation (all-grade AE): 2 (33.3) n (%)
  Decreased appetite (all-grade AE): 2 (33.3) n (%)
  Diarrhoea (all-grade AE): 5 (83.3) n (%)
  Dry skin (all-grade AE): 1 (16.7) n (%)
  Dyspnoea (all-grade AE): 0 (0.0) n (%)
  Fatigue (all-grade AE): 4 (66.7) n (%)
  GGT increased (all-grade AE): 0 (0.0) n (%)
  Hyperglycaemia (all-grade AE): 0 (0.0) n (%)
  Hypoalbuminaemia (all-grade AE): 3 (50.0) n (%)
  Hypokalaemia (all-grade AE): 1 (16.7) n (%)
  Hyponatraemia (all-grade AE): 1 (16.7) n (%)
  Insomnia (all-grade AE): 0 (0.0) n (%)
  Musculoskeletal chest pain (all-grade AE): 1 (16.7) n (%)
  Nausea (all-grade AE): 5 (83.3) n (%)
  Patients with any AE (all-grade AE): 6 (100.0) n (%)
  Platelet count decreased (all-grade AE): 1 (16.7) n (%)
  Pyrexia (all-grade AE): 2 (33.3) n (%)
  Thrombocytopenia (all-grade AE): 1 (16.7) n (%)
  Vomiting (all-grade AE): 4 (66.7) n (%)
  White blood cell count decreased (all-grade AE): 1 (16.7) n (%)
800 mg
  Patients requiring dose interruptions because of AEs: 2 n
800 mg (fatigue, hyperglycaemia)
  Patients with CTCAE grade ≥3 AEs causally related to AZD1208: 3 n
800 mg QD
  Tolerability: not tolerated
800 mg, n = 6
  Abdominal pain (all-grade AE): 0 (0.0) n (%)
  Anaemia (all-grade AE): 2 (33.3) n (%)
  Constipation (all-grade AE): 0 (0.0) n (%)
  DLT detail, action taken: Fatigue, drug interrupted; fatigue, drug interrupted
  Decreased appetite (all-grade AE): 3 (50.0) n (%)
  Diarrhoea (all-grade AE): 6 (100.0) n (%)
  Dry skin (all-grade AE): 0 (0.0) n (%)
  Dyspnoea (all-grade AE): 0 (0.0) n (%)
  Fatigue (all-grade AE): 5 (83.3) n (%)
  GGT increased (all-grade AE): 1 (16.7) n (%)
  Hyperglycaemia (all-grade AE): 2 (33.3) n (%)
  Hypoalbuminaemia (all-grade AE): 0 (0.0) n (%)
  Hypokalaemia (all-grade AE): 1 (16.7) n (%)
  Hyponatraemia (all-grade AE): 0 (0.0) n (%)
  Insomnia (all-grade AE): 1 (16.7) n (%)
  Musculoskeletal chest pain (all-grade AE): 0 (0.0) n (%)
  Nausea (all-grade AE): 4 (66.7) n (%)
  Patients with any AE (all-grade AE): 6 (100.0) n (%)
  Platelet count decreased (all-grade AE): 1 (16.7) n (%)
  Pyrexia (all-grade AE): 0 (0.0) n (%)
  Thrombocytopenia (all-grade AE): 1 (16.7) n (%)
  Vomiting (all-grade AE): 3 (50.0) n (%)
  White blood cell count decreased (all-grade AE): 0 (0.0) n (%)
Total N = 35
  Abdominal pain (all-grade AE): 8 (22.9) n (%)
  Anaemia (all-grade AE): 18 (51.4) n (%)
  Constipation (all-grade AE): 5 (14.3) n (%)
  Decreased appetite (all-grade AE): 15 (42.9) n (%)
  Diarrhoea (all-grade AE): 29 (82.9) n (%)
  Dry skin (all-grade AE): 7 (20.0) n (%)
  Dyspnoea (all-grade AE): 4 (11.4) n (%)
  Fatigue (all-grade AE): 17 (48.6) n (%)
  GGT increased (all-grade AE): 6 (17.1) n (%)
  Hyperglycaemia (all-grade AE): 8 (22.9) n (%)
  Hypoalbuminaemia (all-grade AE): 9 (25.7) n (%)
  Hypokalaemia (all-grade AE): 4 (11.4) n (%)
  Hyponatraemia (all-grade AE): 5 (14.3) n (%)
  Insomnia (all-grade AE): 4 (11.4) n (%)
  Musculoskeletal chest pain (all-grade AE): 4 (11.4) n (%)
  Nausea (all-grade AE): 26 (74.3) n (%)
  Patients with any AE (all-grade AE): 35 (100.0) n (%)
  Platelet count decreased (all-grade AE): 9 (25.7) n (%)
  Pyrexia (all-grade AE): 6 (17.1) n (%)
  Thrombocytopenia (all-grade AE): 5 (14.3) n (%)
  Vomiting (all-grade AE): 19 (54.3) n (%)
  White blood cell count decreased (all-grade AE): 9 (25.7) n (%)
All doses
  Patients with DLTs: Four
All doses, 35 patients
  AEs of grade ≥3, patients: 45.7%
  CTCAE grade ≥3 AEs causally related to AZD1208, patients: 28.6%
  CTCAE grade ≥3 GGT increase, patients: 8.6%
  CTCAE grade ≥3 abdominal pain, patients: 5.7%
  CTCAE grade ≥3 anaemia, patients: 5.7%
  CTCAE grade ≥3 fatigue, patients: 11.4%
  Diarrhoea causally related to AZD1208, patients: 68.6%
  Diarrhoea, patients: 82.9%
  Discontinued the study due to an AE, patients: 11.4%
  Dose interruptions because of AEs, patients: 45.7%
  Gastrointestinal disorders AEs, patients: 97.1%
  Nausea causally related to AZD1208, patients: 65.7%
  Nausea, patients: 74.3%
  Patients with ≥1 SAE: 22.9%
  SAE dyspnoea, patients: 5.7%
  SAE vomiting, patients: 5.7%
  Vomiting, patients: 54.3%
Any patient
  Treatment-related changes in haematology, clinical chemistry, vital signs, ECG or physical findings: No clinically significant treatment-related changes
Not considered AZD1208-related by the investigator
  Patients who died as a result of an AE: 2.9%
One patient, three SAEs (vomiting, fatigue, general physical health deterioration)
  Patients reporting treatment-related SAEs: 2.9%
Solid tumour study
  Doses tolerated as monotherapy: up to 700 mg QD
  Maximum tolerated dose (MTD): could not be determined
